Results reported in PubChem BioAssay (NCI).
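Grown in 96-well plates, cells were treated for 48 hours with each compound at five concentrations. Insufficient inhibition: endpoint recorded as highest concentration tested. Abbreviation: GI50, concentration required for 50% inhibition of growth. At the TGI there is no net growth.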

Key:
Assay in all cases: NCI anticancer screen, dose series, 48 h
NCI/ADR-RES ovarian = tested on: NCI/ADR-RES ovarian
SK-MEL-28 melanoma = tested on: SK-MEL-28 melanoma
RXF 393 renal = tested on: RXF 393 renal
HL-60(TB) leukemia = tested on: HL-60(TB) leukemia
UACC-257 melanoma = tested on: UACC-257 melanoma
UO-31 renal = tested on: UO-31 renal
MDA-MB-435 = tested on: MDA-MB-435
HCT-15 colon = tested on: HCT-15 colon
SK-MEL-2 melanoma = tested on: SK-MEL-2 melanoma
A549 NSCLC = tested on: A549 NSCLC
IGROV1 ovarian = tested on: IGROV1 ovarian
SR leukemia = tested on: SR leukemia
HCT-116 colon = tested on: HCT-116 colon
HOP-92 NSCLC = tested on: HOP-92 NSCLC
MDA-MB-231 breast = tested on: MDA-MB-231 breast
OVCAR-4 ovarian = tested on: OVCAR-4 ovarian
SNB-75 CNS = tested on: SNB-75 CNS
OVCAR-5 ovarian = tested on: OVCAR-5 ovarian
OVCAR-3 ovarian = tested on: OVCAR-3 ovarian
NCI-H226 lung = tested on: NCI-H226 lung
OVCAR-8 ovarian = tested on: OVCAR-8 ovarian
CAKI-1 renal = tested on: CAKI-1 renal
TK-10 renal = tested on: TK-10 renal
K-562 leukemia = tested on: K-562 leukemia
SK-MEL-5 melanoma = tested on: SK-MEL-5 melanoma
MOLT-4 leukemia = tested on: MOLT-4 leukemia
SNB-19 CNS = tested on: SNB-19 CNS
M14 melanoma = tested on: M14 melanoma
DU-145 prostate = tested on: DU-145 prostate

## Cc1ccc(/C=C2\COc3ccc(O)c(O)c3C2=O)cc1
NCI/ADR-RES ovarian
  GI50: 343 nM
  TGI: > 100000 nM
SK-MEL-28 melanoma
  GI50: 933 nM
  TGI: 2830 nM
RXF 393 renal
  GI50: 372 nM
  TGI: 1160 nM
HL-60(TB) leukemia
  GI50: 421 nM
  TGI: 2140 nM
UACC-257 melanoma
  GI50: 1550 nM
  TGI: 5380 nM
UO-31 renal
  GI50: 465 nM
  TGI: 1800 nM
MDA-MB-435
  GI50: 233 nM
  TGI: 764 nM
HCT-15 colon
  GI50: 352 nM
  TGI: 6410 nM
SK-MEL-2 melanoma
  GI50: 555 nM
  TGI: 3650 nM
A549 NSCLC
  GI50: 2330 nM
  TGI: 11500 nM
IGROV1 ovarian
  GI50: 559 nM
  TGI: 2620 nM
SR leukemia
  GI50: 358 nM
  TGI: > 100000 nM
HCT-116 colon
  GI50: 1280 nM
  TGI: 2930 nM
HOP-92 NSCLC
  GI50: 887 nM
  TGI: 5770 nM
MDA-MB-231 breast
  GI50: 340 nM
  TGI: 3780 nM
OVCAR-4 ovarian
  GI50: 1470 nM
  TGI: 4960 nM
SNB-75 CNS
  GI50: 322 nM
  TGI: 3480 nM
OVCAR-5 ovarian
  GI50: 1750 nM
  TGI: 3980 nM
OVCAR-3 ovarian
  GI50: 386 nM
  TGI: 1400 nM
NCI-H226 lung
  GI50: 2130 nM
  TGI: 6240 nM
OVCAR-8 ovarian
  GI50: 404 nM
  TGI: > 100000 nM
CAKI-1 renal
  GI50: 765 nM
  TGI: 2200 nM
TK-10 renal
  GI50: 1470 nM
  TGI: 3440 nM
K-562 leukemia
  GI50: 329 nM
  TGI: > 100000 nM
SK-MEL-5 melanoma
  GI50: 320 nM
  TGI: 1260 nM
MOLT-4 leukemia
  GI50: 403 nM
  TGI: > 29600 nM
SNB-19 CNS
  GI50: 1320 nM
  TGI: 3270 nM
M14 melanoma
  GI50: 292 nM
  TGI: 1060 nM
DU-145 prostate
  GI50: 394 nM
